Read-outs that look alike come from different tables or passages of the source.
Experiments:
Vero E6-GFP cells = experiment: in vitro; type: cell-based, African green monkey; conditions: read-out: Vero E6-GFP CC50; cell viability, 2 μM CP100356
SARS-CoV-2 nsp13 [1] = molecular target: T1, SARS-CoV-2 nsp13 (Severe acute respiratory syndrome coronavirus 2, UniProt P0DTD1); experiment: biochemical
SARS-CoV-2 nsp13 [2] = molecular target: T1, SARS-CoV-2 nsp13; conditions: for impact of DTT on inhibition of unwinding activity: presence or absence of 1 mM DTT
SARS-CoV-2 nsp13 [3] = molecular target: T1, SARS-CoV-2 nsp13; experiment: biochemical; type: biochemical; conditions: for ATPase, percentage of control at the highest tested compound concentration: without BSA/TCEP
SARS-CoV-2 = experiment: microbe, parasite or virus in culture; type: cell-based; conditions: for EC50: Severe acute respiratory syndrome coronavirus 2, Vero, read-out: SARS-CoV-2 EC50
in vitro = type: cell-based, African green monkey; conditions: African green monkey, with CP100356, 2 μM
SARS-CoV-2 nsp13 [4] = molecular target: T1, SARS-CoV-2 nsp13; conditions: read-out: NTPase activity IC50; cited from earlier work
[5] = unwinding IC50, without BSA/TCEP
[6] = ATPase IC50, without BSA/TCEP, no nucleic acid
[7] = unwinding BSA-TCEP IC50, 10 μg/mL BSA and 180 μM TCEP
[8] = ATPase BSA-TCEP-polyrA IC50, BSA, TCEP and poly(A) ssRNA

Compound | IC50 (SARS-CoV-2 nsp13 [1]; [5]) | unwinding, percentage of control at the highest tested compound concentration (SARS-CoV-2 nsp13 [2]; without BSA/TCEP) | IC50 (SARS-CoV-2 nsp13 [3]; [6]) | ATPase, percentage of control at the highest tested compound concentration (SARS-CoV-2 nsp13 [3]) | EC50 (SARS-CoV-2) | SARS-CoV-2, percentage of control at the highest tested compound concentration (SARS-CoV-2) | CC50 at 72 h (in vitro) | viability at 72 h (in vitro) | also measured
CC(C)C[C@H](NC(=O)OCc1ccccc1)C(=O)N[C@@H](CC1CCNC1=O)C(O)S(=O)(=O)O (stereo partly shown) [GC376, reference compound] | – | – | – | – | – | – | – | – | CC50 (Vero E6-GFP cells): > 100 µM
O=c1cc(-c2ccc(O)cc2)oc2cc(O[C@@H]3O[C@H](CO)[C@@H](O)[C@H](O)[C@H]3O)cc(O)c12 [apigenin-7-O-glucoside] | > 30 µM | 100% | > 30 µM | 99% | – | – | – | – | –
O=c1cc(-c2ccccc2)oc2cc(O)c(O)c(O)c12 [baicalein] | – | – | – | 94% | > 100 µM | >100 (100%) | > 100 µM | 100% | –
COc1ccc2cc1Oc1ccc(cc1)C[C@H]1c3c(cc4c(c3Oc3cc5c(cc3OC)CCN(C)[C@@H]5C2)OCO4)CCN1C [cepharanthine] | – | – | – | – | – | – | – | – | IC50 (SARS-CoV-2 nsp13 [4]): 400 µM
O=C1c2c(O)cc(O)cc2O[C@H](c2cc(O)c(O)c(O)c2)[C@H]1O [dihydro-myricetin] | – | – | – | 100% | – | – | – | – | –
COc1ccc(-c2cc(=O)c3c(O)cc(O)cc3o2)cc1O [diosmetin] | – | – | – | 92% | > 100 µM | >100 (100%) | – | – | –
O=C(O)c1cc(O)c(O)c(O)c1 [gallic acid] | > 30 µM | 89% | > 30 µM | 92% | – | – | – | – | –
O=c1c(O)c(-c2ccc(O)cc2)oc2cc(O)cc(O)c12 [kaempferol] | – | – | > 30 µM | 83% | > 100 µM | >100 (100%) | > 100 µM | 100% | IC50 (SARS-CoV-2 nsp13 [1]; [7]): 19 ± 2.1 µM; impact of DTT on inhibition of unwinding activity (SARS-CoV-2 nsp13 [2]): equally active in the presence and absence of DTT; mode of inhibition of unwinding activity (SARS-CoV-2 nsp13 [2]; versus ATP): noncompetitively versus ATP; unwinding IC50 range in words (SARS-CoV-2 nsp13 [2]; without BSA/TCEP): nanomolar range; IC50 (SARS-CoV-2 nsp13 [3]; [8]): > 30 µM
O=c1c(O)c(-c2cc(O)c(O)c(O)c2)oc2cc(O)cc(O)c12 [myricetin] | – | – | – | 87% | > 100 µM | >100 (100%) | > 100 µM | 100% | impact of DTT on inhibition of unwinding activity (SARS-CoV-2 nsp13 [2]): equally active in the presence and absence of DTT
COc1cc(O)c2c(=O)c(-c3ccc(O)cc3)coc2c1 [prunetin] | 11.5 ± 1.7 µM | – | > 30 µM | 97% | > 100 µM | >100 (100%) | > 100 µM | 100% | IC50 (SARS-CoV-2 nsp13 [1]; [7]): > 100 µM; IC50 (SARS-CoV-2 nsp13 [3]; [8]): > 30 µM
O=c1c(O)c(-c2ccc(O)c(O)c2)oc2cc(O)cc(O)c12 [quercetin] | – | – | – | – | > 100 µM | – | > 100 µM | 100% | –
Oc1ccc(/C=C/c2cc(O)cc(O)c2)cc1 [resveratrol] | > 30 µM | 64% | > 30 µM | 98% | – | – | – | – | –
C[C@@H]1O[C@@H](OC[C@H]2O[C@@H](Oc3c(-c4ccc(O)c(O)c4)oc4cc(O)cc(O)c4c3=O)[C@H](O)[C@@H](O)[C@@H]2O)[C@H](O)[C@H](O)[C@H]1O [rutin] | – | 75% | – | 96% | – | – | – | – | –
COc1c(O)cc(O)c2c(=O)cc(-c3ccccc3)oc12 [wogonin] | 24.9 ± 5.5 µM | – | > 30 µM | 95% | – | – | – | – | IC50 (SARS-CoV-2 nsp13 [1]; [7]): 74.9 ± 8.3 µM; IC50 (SARS-CoV-2 nsp13 [3]; [8]): > 30 µM
kaempferol-3-O-rutinoside | – | 71% | – | 95% | – | – | – | – | –
